Like-named read-outs stand apart in the source and are kept apart here.
Experiments:
P2Y1 = settings: read-out: EC50 toward P2Y1; functional assay; cited from earlier work
P2Y12 = settings: read-out: EC50 toward P2Y12; functional assay; cited from earlier work
[1] = test system: ADP induced human platelet aggregation; test: ADP-induced human platelet aggregation, 96-well microplate method; type: cell-based
platelet P2X1 receptors [2] = biological target: T1, platelet P2X1 receptors (Homo sapiens, UniProt P51575); test: P2X1-mediated entry of extracellular Ca2+; type: cell-based
T1 sequence (P51575 1-399): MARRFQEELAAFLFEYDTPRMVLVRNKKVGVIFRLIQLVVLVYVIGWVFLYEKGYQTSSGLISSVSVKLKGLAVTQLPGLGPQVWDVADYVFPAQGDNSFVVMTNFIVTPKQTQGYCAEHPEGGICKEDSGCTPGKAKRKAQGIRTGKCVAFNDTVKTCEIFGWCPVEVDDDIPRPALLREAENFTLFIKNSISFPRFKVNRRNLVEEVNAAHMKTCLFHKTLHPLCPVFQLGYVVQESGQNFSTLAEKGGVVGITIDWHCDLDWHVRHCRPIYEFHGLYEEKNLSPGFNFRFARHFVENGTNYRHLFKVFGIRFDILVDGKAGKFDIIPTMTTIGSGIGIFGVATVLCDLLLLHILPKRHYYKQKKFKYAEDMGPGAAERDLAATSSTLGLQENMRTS

[3] = biological target: human platelet P2Y1 receptors (Homo sapiens, UniProt P47900); settings: read-out: P2Y1 inhibition IC50; cited from earlier work
[4] = biological target: T2, human platelet P2Y12 receptors (Homo sapiens, UniProt Q9H244); settings: cited from earlier work
platelet P2X1 receptors [5] = biological target: T1, platelet P2X1 receptors; settings: cited from earlier work
[6] = biological target: T2, human platelet P2Y12 receptors; test: P2Y12-mediated VASP phosphorylation assay; type: cell-based
[7] = read-out: IC50, nM (95% Confidence Interval), no pre-incubation, 3 μM ADP
[8] = read-out: IC50, nM (95% Confidence Interval), pre-incubation with test compound, 5 μM ADP
[9] = read-out: IC50, nM (95% Confidence Interval), pre-incubation with test compound, 20 μM ADP

T2 sequence (Q9H244 whole entry): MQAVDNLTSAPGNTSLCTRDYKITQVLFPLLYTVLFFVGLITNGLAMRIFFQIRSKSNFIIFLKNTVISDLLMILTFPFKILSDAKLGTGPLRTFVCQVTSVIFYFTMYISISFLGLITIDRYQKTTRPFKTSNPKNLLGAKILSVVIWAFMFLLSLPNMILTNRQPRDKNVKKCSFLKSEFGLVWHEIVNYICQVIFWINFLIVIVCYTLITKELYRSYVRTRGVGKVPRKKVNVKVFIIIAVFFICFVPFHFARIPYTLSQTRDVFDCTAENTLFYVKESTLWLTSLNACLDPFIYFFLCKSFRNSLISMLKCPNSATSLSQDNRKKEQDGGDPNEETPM
human platelet P2Y1 receptors, sequence (P47900 whole entry): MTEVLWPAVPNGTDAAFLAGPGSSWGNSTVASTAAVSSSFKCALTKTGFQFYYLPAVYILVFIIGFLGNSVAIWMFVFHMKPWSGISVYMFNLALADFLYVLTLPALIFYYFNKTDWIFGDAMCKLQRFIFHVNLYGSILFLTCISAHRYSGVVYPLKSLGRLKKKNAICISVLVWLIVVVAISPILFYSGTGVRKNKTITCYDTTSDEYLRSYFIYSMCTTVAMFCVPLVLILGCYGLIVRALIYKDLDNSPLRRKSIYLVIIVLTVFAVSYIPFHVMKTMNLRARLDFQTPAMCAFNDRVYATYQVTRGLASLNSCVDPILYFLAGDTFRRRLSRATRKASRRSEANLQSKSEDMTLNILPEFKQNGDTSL

Compound	IC50 [1, 7] [nM]	IC50 [1, 8] [nM]	IC50 [1, 9] [nM]	further results
2-methylthioadenosine 5′-diphosphate [Compound 2-MeSADP]	–	–	–	EC50 (P2Y1): 6 nM; EC50 (P2Y12): 0.3 nM
CSc1nc(N)c2ncn([C@@H]3O[C@H](COP(=O)(S)OP(=O)(O)OP(=O)(O)OP(=O)(S)OC[C@H]4O[C@@H](n5cnc6c(N)nc(SC)nc65)[C@H](O)[C@@H]4O)[C@@H](O)[C@H]3O)c2n1 (mixture of isomers) [Compound 3, P^1,P^4-di-(2-methylthio-5′-adenosine) P^1,P^4-dithiotetraphosphate]	61.8	70.3	731	–
Nc1nc(SCCC(F)(F)F)nc2c1ncn2[C@@H]1O[C@H](COP(=O)(S)OP(=O)(O)C(Cl)P(=O)(O)OP(=O)(S)OC[C@H]2O[C@@H](n3cnc4c(N)nc(SCCC(F)(F)F)nc43)[C@H](O)[C@@H]2O)[C@@H](O)[C@H]1O (mixture of isomers) [Compound 8, P^1,P^4-di-(2-(3,3,3-trifluoropropylthylthio)-5′-adenosine) P^1,P^4-dithio-P^2,P^3-chloromethylenetetraphosphate]	144	15	26.6	–
CCCCCSc1nc(N)c2ncn([C@@H]3O[C@H](COP(=O)(S)OP(=O)(O)C(Cl)P(=O)(O)OP(=O)(S)OC[C@H]4O[C@@H](n5cnc6c(N)nc(SCCCCC)nc65)[C@H](O)[C@@H]4O)[C@@H](O)[C@H]3O)c2n1 (mixture of isomers) [Compound 9, P^1,P^4-di-(2-pentylthio-5′-adenosine) P^1,P^4-dithio-P^2,P^3-chloromethylenetetraphosphate]	1090	90.7	172	–
CNc1ncnc2c1ncn2[C@@H]1O[C@H](COP(=O)(S)OP(=O)(O)C(Cl)P(=O)(O)OP(=O)(S)OC[C@H]2O[C@@H](n3cnc4c(NC)ncnc43)[C@H](O)[C@@H]2O)[C@@H](O)[C@H]1O (mixture of isomers) [Compound 13, P^1,P^4-di-(N^6-methyl-5′-adenosine) P^1,P^4-dithio-P^2,P^3-chloromethylenetetraphosphate]	5870	10700	37200	–
CCCNc1ncnc2c1ncn2[C@@H]1O[C@H](COP(=O)(S)OP(=O)(O)C(Cl)P(=O)(O)OP(=O)(S)OC[C@H]2O[C@@H](n3cnc4c(NCCC)ncnc43)[C@H](O)[C@@H]2O)[C@@H](O)[C@H]1O (mixture of isomers) [Compound 14, P^1,P^4-di-(N^6-propyl-5′-adenosine) P^1,P^4-dithio-P^2,P^3-chloromethylenetetraphosphate]	3930	12000	22400	activation at 1 µM (platelet P2X1 receptors [2]; read-out: P2X1 activation %±SEM): -0.01 ± 0.91%
CNc1nc(SC)nc2c1ncn2[C@@H]1O[C@H](COP(=O)([S-])OP(=O)([O-])C(Cl)P(=O)([O-])OP(=O)([S-])OC[C@H]2O[C@@H](n3cnc4c(NC)nc(SC)nc43)[C@H](O)[C@@H]2O)[C@@H](O)[C@H]1O.[Na+].[Na+].[Na+].[Na+] (mixture of isomers) [Compound 15, P^1,P^4-di-(2-methylthio-N^6-methyl-5′-adenosine) P^1,P^4-dithio-P^2,P^3-chloromethylenetetraphosphate]	616	–	–	P2X1 agonist activity (platelet P2X1 receptors [2]): effective P2X1 agonist
CSc1nc(N)c2ncn([C@@H]3O[C@H](COP(=O)(S)OP(=O)(O)C(Cl)(Cl)P(=O)(O)OP(=O)(S)OC[C@H]4O[C@@H](n5cnc6c(N)nc(SC)nc65)[C@H](O)[C@@H]4O)[C@@H](O)[C@H]3O)c2n1 (mixture of isomers) [Compound 16, P^1,P^4-di-(2-methylthio-5′-adenosine) P^1,P^4-dithio-P^2,P^3-dichloromethylenetetraphosphate]	295	–	–	–
Nc1ncnc2c1ncn2[C@@H]1O[C@H](COP(=O)(O)OP(=O)(O)O)[C@@H](O)[C@H]1O [ADP, adenosine diphosphate]	–	–	–	EC50 (P2Y1): 8000 nM; EC50 (P2Y12): 69 nM
Nc1ncnc2c1ncn2[C@@H]1O[C@H](COP(=O)(O)OP(=O)(O)OP(=O)(O)OP(=O)(O)OC[C@H]2O[C@@H](n3cnc4c(N)ncnc43)[C@H](O)[C@@H]2O)[C@@H](O)[C@H]1O [Ap4A, P^1,P^4-Di(adenosine-5′) tetraphosphate]	–	–	–	IC50 [3]: 32500 nM; P2Y12 antagonist character [4]: partial antagonist; IC50 ([4]; read-out: P2Y12 inhibition IC50): > 250000 nM; P2X1 agonist activity (platelet P2X1 receptors [5]): effective P2X1 receptor agonist
CSc1nc(N)c2ncn([C@@H]3O[C@H](COP(=O)([O-])OP(=O)([O-])OP(=O)([O-])OP(=O)([O-])OC[C@H]4O[C@@H](n5cnc6c(N)nc(SC)nc65)[C@H](O)[C@@H]4O)[C@@H](O)[C@H]3O)c2n1.[Na+].[Na+].[Na+].[Na+] [Compound 2, P^1,P^4-di-(2-Methylthio-5′-adenosine) tetraphosphate]	71.3	1020	3950	P2Y12 antagonist character [6]: full antagonist
CSc1nc(N)c2ncn([C@@H]3O[C@H](COP(=O)(O)OP(=O)(O)C(Cl)P(=O)(O)OP(=O)(O)OC[C@H]4O[C@@H](n5cnc6c(N)nc(SC)nc65)[C@H](O)[C@@H]4O)[C@@H](O)[C@H]3O)c2n1 (some centres unmarked) [Compound 4, P^1,P^4-di-(2-methylthio-5′-adenosine) P^2,P^3-chloromethylenetetraphosphate]	33.1	8.89	32.6	–
CNc1ncnc2c1ncn2[C@H]1C[C@H](OP(=O)(O)O)[C@@H](COP(=O)(O)O)O1 [MRS2179, reference compound]	–	–	–	P2Y12 inhibition IC50±SEM ([6]; 3 μM ADP, VASP phosphorylation, human blood): Not inhibitor

More lines, main results first:

IC50 [1, 7] [nM]	IC50 [1, 8] [nM]	IC50 [1, 9] [nM]	Compound	further results
437	757	7680	Nc1ncnc2c1ncn2[C@@H]1O[C@H](COP(=O)(S)OP(=O)(O)C(Cl)P(=O)(O)OP(=O)(S)OC[C@H]2O[C@@H](n3cnc4c(N)ncnc43)[C@H](O)[C@@H]2O)[C@@H](O)[C@H]1O (mixture of isomers) [Compound 1, reference compound]	–
46.1	8.48	13.4	CCSc1nc(N)c2ncn([C@@H]3O[C@H](COP(=O)(S)OP(=O)(O)C(Cl)P(=O)(O)OP(=O)(S)OC[C@H]4O[C@@H](n5cnc6c(N)nc(SCC)nc65)[C@H](O)[C@@H]4O)[C@@H](O)[C@H]3O)c2n1 (mixture of isomers) [Compound 6, P^1,P^4-di-(2-ethylthio-5′-adenosine) P^1,P^4-dithio-P^2,P^3-chloromethylenetetraphosphate]	–
113	23.4	44.6	CCCSc1nc(N)c2ncn([C@@H]3O[C@H](COP(=O)(S)OP(=O)(O)C(Cl)P(=O)(O)OP(=O)(S)OC[C@H]4O[C@@H](n5cnc6c(N)nc(SCCC)nc65)[C@H](O)[C@@H]4O)[C@@H](O)[C@H]3O)c2n1 (mixture of isomers) [Compound 7, P^1,P^4-di-(2-propylthio-5′-adenosine) P^1,P^4-dithio-P^2,P^3-chloromethylenetetraphosphate]	–
140	369	2690	Nc1nc(Cl)nc2c1ncn2[C@@H]1O[C@H](COP(=O)(S)OP(=O)(O)C(Cl)P(=O)(O)OP(=O)(S)OC[C@H]2O[C@@H](n3cnc4c(N)nc(Cl)nc43)[C@H](O)[C@@H]2O)[C@@H](O)[C@H]1O (mixture of isomers) [Compound 10, P^1,P^4-di-(2-chloro-5′-adenosine) P^1,P^4-dithio-P^2,P^3-chloromethylenetetra-phosphate]	–
87.8	173	936	Nc1nc(Br)nc2c1ncn2[C@@H]1O[C@H](COP(=O)(S)OP(=O)(O)C(Cl)P(=O)(O)OP(=O)(S)OC[C@H]2O[C@@H](n3cnc4c(N)nc(Br)nc43)[C@H](O)[C@@H]2O)[C@@H](O)[C@H]1O (mixture of isomers) [Compound 11, P^1,P^4-di-(2-bromo-5′-adenosine) P^1,P^4-dithio-P^2,P^3-chloromethylenetetra-phosphate]	–
49.9	48.5	416	Nc1nc(I)nc2c1ncn2[C@@H]1O[C@H](COP(=O)(S)OP(=O)(O)C(Cl)P(=O)(O)OP(=O)(S)OC[C@H]2O[C@@H](n3cnc4c(N)nc(I)nc43)[C@H](O)[C@@H]2O)[C@@H](O)[C@H]1O (mixture of isomers) [Compound 12, P^1,P^4-di-(2-iodo-5′-adenosine) P^1,P^4-dithio-P^2,P^3-chloromethylenetetra-phosphate]	–

From article PMC4674339 (European journal of medicinal chemistry, 2015)
